The results in this text go back to US9492428B2, “Compounds, compositions, pharmaceutical compositions, and methods of use” (University of Louisville Research Foundation, Inc., priority 2011, dated 2016).

The test system of assay [1] is DU145 cells. Description: Trypan blue exclusion assay (cell death). Type of assay: cell-based, human. Conditions: 10 μM, 72 h. On the procedure:
FIG. 12. Trypan blue exclusion assay to determine cell death. DU145 prostate cancer cells were left untreated or treated with 10 μM compound I-1 or with vehicle (DMSO) for 72 h. After treatment, all cells (both adherent and floating) were harvested, stained with trypan blue, and counted immediately to determine the percentage of non-viable cells (stained blue). Columns represent the mean of three independent experiments, bars represent standard error, and numbers above each column represent the percentage of blue cells in the sample.
Compound I-1 promotes cell death by apoptosis. Because prolonged cell cycle arrest can cause induction of cell death, we next investigated the viability of prostate cancer cells treated with compound I-1. To begin, we used the trypan blue exclusion assay, which is based on the principle that live cells will exclude membrane-impermeable dyes such as trypan blue, whereas trypan blue will get inside the dead cells and stain them. […] To determine whether apoptosis (programmed cell death) is the cause of cell death induced by compound I-1, we examined the cells for biochemical and morphological markers of apoptosis. […]

The subject of a further assay is RWPE-1 cells. The experiment in a line: MTT assay (cytotoxicity) in RWPE-1. Type of assay: cell-based. To be noted: Homo sapiens, FIG. 4, read-out: GI50 against RWPE-1. An excerpt:
FIG. 4. Bioassay of compound I-1, compound I-2, and compound I-3. SPA14-3-2 is pure compound I-2. SPA14-3-3 is pure compound I-3. SPA14-3-4 is pure compound I-1. MTT assays using compound I-1, compound I-2, and compound I-3 against DU145 and RWPE-1 cells lines.
Isolation, NMR, and X-ray crystallographic analyses. Leaves, stems, and few fruits of Physalis angulate L (Solanaceae) were collected in Rio Domingusa. Kuith/Barranquita, Amazonas Department, Northeastern Peru, and identified by the team led by Walter Lewis (collection voucher 18597, Ext. 1159). Dried and grounded material (46 g) was extracted with ethanol (1 L, 95%) for 7 days. The evaporated crude extract (6.26 g) was denoted SPA. An aliquot (1.5 g) of SPA was partitioned between dichloromethane (40 mL) and water (40 mL), affording two fractions: organic (SPA1, 500 mg) and aqueous (SPA2, 600 mg). All MTT assays were performed as described in Bates et al. “G-Rich Oligonucleotides for Cancer Treatment” Chapter 21 of Methods in Molecular Biology, Gene Therapy of Cancer, Wolfgang Walther and Ulrike S. Stein (eds.), Vol. 542, 2009, Humana Press. […] SPA14-3 (30 mg) was treated on an HPLC using a reverse phase C18 column eluted in gradient mode of methanol and water (from 80% methanol to 100% methanol) and detected at 254 nm, yielding SPA14-3-1 (0 mg), SPA14-3-2 (1.2 mg of pure compound I-2), SPA14-3-3 (4.1 mg of pure compound I-3), and SPA14-3-4 (18 mg of pure compound I-1).
General Experimental Procedure. Compound I-1 was isolated as described in Example Set 1, above. For samples of compound I-1 used in Example Set 2, HPLC and NMR indicated a purity of at least 95%. All experiments described in Example Set 2 were repeated at least two or three times. All MTT assays were performed according to Bates et al. “G-Rich Oligonucleotides for Cancer Treatment” Chapter 21 of Methods in Molecular Biology, Gene Therapy of Cancer, Wolfgang Walther and Ulrike S. Stein (eds.), Vol. 542, 2009, Humana Press.
Background: Tetrazolium assays rely on reduction of a dye to a coloured formazan, in cell work by metabolically active cells.

Assay [2] deals with DU145 cells. The experiment in a line: Annexin V-FITC / propidium iodide flow cytometry (apoptosis). Type of assay: cell-based, human. On the procedure: FIG. 9. Effect of compound I-1 at 5 μM on cell cycle and apoptosis. Cells were then harvested by trypsinization. (A) For flow cytometric analysis of cell cycle parameters, cells were fixed, and stained with propidium iodide. Each histogram indicates the percent of cells in G1, S, and G2/M phases of the cell cycle. Data were gated to exclude apoptotic cells for these calculations. (B) For apoptosis detection, cells were incubated with FITC-conjugated Annexin V and propidium iodide. Flow cytometric analysis was performed and the histogram for each sample was split into four quadrants to indicate: viable cells (lower left quadrant), apoptotic cells (lower right quadrant), necrotic cells (upper left quadrant), and necrotic/late apoptotic cells (upper right quadrant).
FIG. 13. Assays to detect apoptosis in DU145 cells. Prostate cancer cells were left untreated (−) or treated with 10 μM compound I-1 or with vehicle (DMSO) for the time indicated in the figure. (A) After treatment, cells were harvest by trypsinization, washed with PBS, and then incubated with FITC-conjugated Annexin V and propidium iodide. Flow cytometric analysis was performed. The histogram for each sample was split into four quadrants to indicate: viable cells (lower left quadrant), apoptotic cells (lower right quadrant), necrotic cells (upper left quadrant), and necrotic/late apoptotic cells (upper right quadrant). (B) After treatment, cells were lysed and total lysates were analyzed for cellular apoptotic markers by immunoblotting using anti-[…] or antibodies specific to the activated form of Caspase-3 (cleaved Caspase-3). Anti-GAPDH-1 antibody was used as loading control. (C) Some cells were harvested by trypsinization, washed with PBS, and total DNA was extracted then analyzed on a 1.8% agarose gel. M indicates DNA size marker (base pairs).
Flow cytometric assays of cell cycle and cell death. Cells in fresh complete medium were plated (2×10^5 per well) into six-well plates for 18 h. After complete adhesion, cells were treated as indicated in the figures and harvested by trypsinization. For cell cycle distribution, cells were fixed, and stained with propidium iodide using the Cycle Test Plus kit (Becton Dickinson). For cell death detection, cells were stained with Annexin-V-FITC and propidium iodide using the Apoptosis Detection Kit (BD Biosciences), according to the manufacturer's instructions. Cells were then analyzed by flow cytometry using a FACScalibur cytometer (BD Biosciences, Mountain View, Calif.) and FlowJo program (Tree Star, Inc., Ashland, Oreg.).
Compound I-1 promotes cell death by apoptosis. Because prolonged cell cycle arrest can cause induction of cell death, we next investigated the viability of prostate cancer cells treated with compound I-1. To begin, we used the trypan blue exclusion assay, which is based on the principle that live cells will exclude membrane-impermeable dyes such as trypan blue, whereas trypan blue will get inside the dead cells and stain them. […] To determine whether apoptosis (programmed cell death) is the cause of cell death induced by compound I-1, we examined the cells for biochemical and morphological markers of apoptosis. Cells undergoing apoptosis specifically translocate the membrane phospholipid phosphatidylserine (PS) from the inner face of the plasma membrane to the cell surface; therefore, apoptotic cells can be identified by the presence of PS on the cell surface. Detection of PS is achieved by staining with a fluorescent conjugate of Annexin V, a protein that has a high affinity for PS, followed by flow cytometry analysis. Cells are stained in parallel with propidium iodide (PI), which can only enter the cell when the plasma membrane is damaged. This allows early apoptotic cells (positive for PS, but negative for PI) to be distinguished from late apoptotic and necrotic cells (positive for both PS and PI).
(In general: Flow cytometry measures light scatter and fluorescence of single cells or particles in a stream.)

Converted amounts (≈) assume the structure as drawn.

Turning to `C[C@@H]1CC[C@H]2C3C(O[C@]4([C@]5(O)CC6(C)C(=O)OC5C[C@@]6(C)O)CC[C@@]31O4)[C@H]1O[C@]13CC=CC(=O)[C@]23C` (stereo partly drawn) [I-1], the “dead cells (trypan blue)” value with DU145 cells [1] is roughly 90%. The 50% growth inhibitory concentration (GI50) with RWPE-1 cells is roughly 1.2 µg/mL (≈ 2.4 µM). Besides, the apoptotic population with DU145 cells [2] (5 μM, 24 h) is listed as 5.2%; in the assay on DU145 cells [2] (5 μM, 48 h), 9.2%; with DU145 cells [2] (5 μM, 72 h), 11.5%; with DU145 cells [2] (10 μM, 24 h), 7.4%. Also, the apoptotic cell population worked out at 32.3% in the assay on DU145 cells [2] (10 μM, 48 h) and 46.4% with DU145 cells [2] (10 μM, 72 h). Besides, in the assay on DU145 cells [2] (10 μM, 72 h), the “population of late apoptotic/necrotic cells” value is given as 28.4%.

By GI50 is commonly meant the concentration giving 50% growth inhibition.
